The subject of assay [1] is CLN3^Δex7/8 neural stem cells. Nature of the assay: Lysotracker staining of CLN3^Δex7/8 neural stem cells. The class given is cell-based, human. The procedure:
The cells were stained with Lysotracker, a fluorescent dye that is enriched in acidic lysosomes and emits red fluorescence. The fluorescence intensity of the stained cells was then analyzed using flow cytometry.

Assay [2] deals with SCMAS protein. Description: SCMAS protein storage in neurons (immunofluorescence staining and western blot). The format is cell-based, human. Particulars: CLN3^Δex7/8 neurons. As to the method: Sample preparation: for adherent cultured cells, exemplified by cells cultured in a six-well cell plate, the cell medium was aspirated and the cells were washed once with dPBS. About 100 μL of RIPA lysate (50 mM Tris-HCl, pH 7.5, 150 mM NaCl, 0.25% Na-deoxycholate, 0.1% NP-40, 0.1% Triton X-100) containing protease inhibitors and phosphatase inhibitors was added to each well. The cell lysate was scraped off completely with a cell scraper and collected into 1.5 mL EP tubes. Lysis was continued for 30 minutes on ice. For animal tissue, the weight of the animal tissue was weighed, and RIPA lysate containing protease inhibitors and phosphatase inhibitors was added with five times the volume of the animal tissue. The tissue was grinded on ice with a tissue grinder until there is no obvious tissue mass, collected into 1.5 mL EP tubes, and placed on ice for further lysis for 30 min. […]
For orientation: A western blot detects proteins with antibodies after separation by electrophoresis.

The target in assay [3] is T1, KEAP1 protein (Homo sapiens, UniProt Q14145).
T1 construct: mass spectrometry was used to analyze the thiol reactivity of the cysteine residues on KEAP1 in the lysate; endogenous in cells; host or cells: CLN3 Δex7/8 human neural stem cells differentiated from H9 human embryonic stem cells
Nature of the assay: Quantitative thiol reactivity analysis. The settings on record: CLN3^Δex7/8 human neural stem cells, 30 μM, 2 hours, mass spectrometry. The class given is binding. The procedure:
To determine the protein covalently bound to Compound G, a Compound G-binding proteomic analysis with the following steps was performed: neural stem cells were cultured in 10 cm cell culture dishes to a cell density of 90%. 1-2 mg of protein could be obtained after the neural stem cells in a 10 cm cell culture dish are lysed; the supernatant was aspirated, fresh medium containing 30 μM Compound G or medium containing an equal volume of solvent DMSO was added, followed by incubation in a cell culture incubator at 37° C. for 2 hours; the cell medium was aspirated followed by washing once with 10 mL of dPBS, and the aspiration should be as clean as possible.
The cell culture dish was placed on ice and added with RIPA cell lysis buffer with protease inhibitors and phosphatase inhibitors (for the formulation, please refer to the flow cytometry analysis and sorting section); all cells were scraped off on ice using a cell scraper and collected into 1.5 mL EP tubes; the sample was placed on ice and ultrasonically broken with an ultrasonic power of 20% and with ultrasound 5 times for 3 seconds each time; ENE probe at a final concentration of 100 μM was added to each sample, followed by incubation for 1 hour in the dark while rotating. ENE could react with sulfhydryl groups in protein cysteine residues to produce stable thioether bonds. […]

Results on one compound are retold here after patent US20250152605A1, “METHOD AND DRUG FOR TREATING NEURONAL CEROID LIPOFUSCINOSIS” (priority 2021, published 2025).

SMILES strings stand for the structures.

T1 sequence (Q14145 whole entry): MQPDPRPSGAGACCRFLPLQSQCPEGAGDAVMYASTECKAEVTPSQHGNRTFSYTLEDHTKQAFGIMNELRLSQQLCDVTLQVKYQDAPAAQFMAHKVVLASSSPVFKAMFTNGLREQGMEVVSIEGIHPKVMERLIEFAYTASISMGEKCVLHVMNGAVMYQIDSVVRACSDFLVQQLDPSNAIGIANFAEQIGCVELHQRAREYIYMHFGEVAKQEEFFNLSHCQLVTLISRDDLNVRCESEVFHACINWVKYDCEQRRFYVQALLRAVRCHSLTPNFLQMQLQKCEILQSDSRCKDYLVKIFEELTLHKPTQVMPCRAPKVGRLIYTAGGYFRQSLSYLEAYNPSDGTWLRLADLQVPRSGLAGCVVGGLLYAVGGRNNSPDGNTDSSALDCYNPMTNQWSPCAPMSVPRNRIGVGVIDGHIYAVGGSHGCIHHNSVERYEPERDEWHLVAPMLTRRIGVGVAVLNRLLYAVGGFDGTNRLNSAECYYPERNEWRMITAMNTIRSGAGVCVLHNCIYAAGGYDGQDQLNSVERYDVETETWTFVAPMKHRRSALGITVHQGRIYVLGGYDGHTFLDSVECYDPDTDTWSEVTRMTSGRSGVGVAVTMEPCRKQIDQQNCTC

In the case of `C/C=C1\C(=O)C[C@H]2[C@@H]3CCC4=CC(=O)CC[C@]4(C)[C@H]3CC[C@]12C` [Compound G, (Z)-guggulsterone], the “Lysotracker staining in neural stem cells” value in assay [1] was “significantly improve the Lysotracker staining”. In addition, the “abnormal storage of SCMAS protein” value in assay [2] is recorded as “significant reduction”. In addition, in assay [3], the “thiol reactivity of the cysteine residues on KEAP1” value was “reduce the thiol reactivity of cysteine residue 288”.
